Target: cytochrome bo3 (cbo3), ubiquinol oxidase (Escherichia coli, UniProt P0ABI8)
Format: biochemical

cytochrome bo3 (cbo3), ubiquinol oxidase, sequence (P0ABI8 whole entry): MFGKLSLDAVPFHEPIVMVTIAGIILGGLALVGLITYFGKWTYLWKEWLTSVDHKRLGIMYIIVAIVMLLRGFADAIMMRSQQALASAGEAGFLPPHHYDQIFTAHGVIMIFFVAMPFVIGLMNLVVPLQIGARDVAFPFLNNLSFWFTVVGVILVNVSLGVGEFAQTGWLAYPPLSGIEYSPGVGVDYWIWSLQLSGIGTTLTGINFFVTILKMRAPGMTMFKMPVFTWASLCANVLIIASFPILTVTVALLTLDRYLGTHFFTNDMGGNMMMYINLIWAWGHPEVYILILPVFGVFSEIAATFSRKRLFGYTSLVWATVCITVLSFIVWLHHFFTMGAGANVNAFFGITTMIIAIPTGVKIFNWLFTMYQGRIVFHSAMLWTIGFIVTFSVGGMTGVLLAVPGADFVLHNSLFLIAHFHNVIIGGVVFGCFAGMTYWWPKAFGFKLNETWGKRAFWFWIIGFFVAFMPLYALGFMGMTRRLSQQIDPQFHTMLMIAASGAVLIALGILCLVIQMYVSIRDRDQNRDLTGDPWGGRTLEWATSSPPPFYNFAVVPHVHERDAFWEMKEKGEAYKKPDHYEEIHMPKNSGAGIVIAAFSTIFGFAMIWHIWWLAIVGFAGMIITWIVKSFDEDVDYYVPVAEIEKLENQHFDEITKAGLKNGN
cytochrome bo3 (cbo3), ubiquinol oxidase, sequence (P0ABJ1 25-315 partner): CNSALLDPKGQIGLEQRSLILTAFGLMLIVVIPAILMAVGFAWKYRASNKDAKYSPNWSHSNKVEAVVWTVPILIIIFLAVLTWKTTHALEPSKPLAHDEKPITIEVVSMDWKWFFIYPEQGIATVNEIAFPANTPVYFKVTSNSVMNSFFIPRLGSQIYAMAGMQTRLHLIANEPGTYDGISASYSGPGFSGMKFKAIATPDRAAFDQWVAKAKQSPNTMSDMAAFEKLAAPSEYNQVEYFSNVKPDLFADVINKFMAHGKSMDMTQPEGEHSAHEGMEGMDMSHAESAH
cytochrome bo3 (cbo3), ubiquinol oxidase, sequence (P0ABJ3 whole entry partner): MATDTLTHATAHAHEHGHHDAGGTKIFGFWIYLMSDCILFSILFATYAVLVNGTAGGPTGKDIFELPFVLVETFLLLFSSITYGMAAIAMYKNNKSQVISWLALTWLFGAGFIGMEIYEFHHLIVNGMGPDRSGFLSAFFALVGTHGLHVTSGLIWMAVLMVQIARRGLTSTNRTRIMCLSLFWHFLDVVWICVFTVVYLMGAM
cytochrome bo3 (cbo3), ubiquinol oxidase, sequence (P0ABJ6 whole entry partner): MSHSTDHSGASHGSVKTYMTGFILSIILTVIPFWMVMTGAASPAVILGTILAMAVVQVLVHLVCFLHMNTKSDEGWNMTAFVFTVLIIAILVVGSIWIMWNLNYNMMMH

Work on `CCCCCCCc1cc(O)c2ccccc2[n+]1[O-]` [2-n-Heptyl-4-hydroxyquinoline N-oxide] yielded an IC50 of 28.7 ± 2.1 µM.

Source: article PMC3827738 (Biochimica et biophysica acta, 2010)
